Experimental data: patent EP1377579B1 (Aventis Pharmaceuticals Inc., priority 2000, dated 2002)

Key:
HL-60 = assay: In vitro proliferation assay (MTT), HL-60; type: cell-based; details: Homo sapiens, HL-60; MTT assay; value (SD, n) where given; read-out: HL-60 Leuk. (IC50 µM)
Outline: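 Tetrazolium (MTT) proliferation test following a 3-day treatment with compound. Read-out is optical density at 570 nm after DMSO solubilization.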

Colo-205 = assay: In vitro proliferation assay (MTT), Colo-205; type: cell-based; details: Homo sapiens, COLO 205; MTT assay; value (SD, n) where given; read-out: Colo-205 Colon (IC50 µM)
Outline: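 Colo-205 cells were seeded at 1000–2500 cells/well and allowed to attach overnight, then exposed to compound for 3 days. Viable cells were measured by MTT reduction (2–4 h, 37 °C), with DMSO-solubilised dye read at 570 nm. IC50 was derived from concentration–response data.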

MDA-MB-435 = assay: In vitro proliferation assay (MTT), MDA-MB-435; type: cell-based, human; details: Homo sapiens, MDA-MB-435, MTT assay; value (SD, n) where given; read-out: MB-435 Breast (IC50 µM)
Outline: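 IC50 values come from absorbance at 570 nm after MTT staining of cells grown with compound for 3 days. Seeding density was 1000 to 2500 cells/well, depending on the line.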

cdk4/cyclin D1 = cdk4/cyclin D1 (Homo sapiens, UniProt P11802); assay: Cyclin-dependent kinase assay, cdk4/cyclin D1; type: biochemical; details: cyclin D1/cdk4; GST-pRb substrate, 10 µM ATP
[1] = test system: PC-3 Human Prostate Tumors; assay: PC-3 human prostate tumor xenograft in nude mice; type: in vivo; set-up: unit not given here; details: Table 4
Outline: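 Subcutaneous HL-60 (5 x10^5 cells) or PC-3 (5 x 10^6 cells) xenografts in nude mice; ip dosing qd 5x/wk from 50–100 mm^3 tumors, at MTD and 1/3 MTD, ~3 wk (HL-60) or ~5 wk (PC-3). Caliper tumor volume ½(a x b2) twice weekly; body weight weekly.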

in vivo = details: male, Hsd:ICR (CD-1), mouse, plasma
cdk2/cyclin E = cdk2/cyclin E (Homo sapiens, UniProt P24941); assay: Cyclin-dependent kinase assay, cdk2/cyclin E; details: CDK2 IC50, nM, GST-pRb substrate, 10 µM ATP
[2] = Bioavailability experiment in mice given single intravenous cassette doses; details: for Cls: mice plasma, single intravenous cassette dose; for Conc. in plasma / Conc. (ng/ml) in plasma: mice; for Conc. in plasma: single 15 mg/kg intravenous cassette dose (3 mg/kg/compound), BLQ = below assay quantification limit (approximately 1 ng/ml); for Conc. (ng/ml) in plasma: BLQ = below assay quantification limit
[3] = Cassette #1, single 18 mg/kg intravenous cassette dose, 24 h
[4] = 3 mg/kg/compound (18 mg/kg Total Dose), Cassette #1
[5] = 3 mg/kg/compound (15 mg/kg Total Dose), Cassette #3

cdk4/cyclin D1, sequence (P11802 whole entry): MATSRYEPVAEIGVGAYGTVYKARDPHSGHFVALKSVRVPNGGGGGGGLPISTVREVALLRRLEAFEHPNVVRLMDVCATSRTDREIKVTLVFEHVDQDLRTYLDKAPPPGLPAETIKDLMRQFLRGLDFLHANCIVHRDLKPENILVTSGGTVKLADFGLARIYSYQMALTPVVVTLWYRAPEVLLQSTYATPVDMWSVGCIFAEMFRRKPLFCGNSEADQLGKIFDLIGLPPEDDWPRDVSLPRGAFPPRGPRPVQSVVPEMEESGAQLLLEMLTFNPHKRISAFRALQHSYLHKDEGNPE
cdk4/cyclin D1, sequence (P24385 whole entry partner): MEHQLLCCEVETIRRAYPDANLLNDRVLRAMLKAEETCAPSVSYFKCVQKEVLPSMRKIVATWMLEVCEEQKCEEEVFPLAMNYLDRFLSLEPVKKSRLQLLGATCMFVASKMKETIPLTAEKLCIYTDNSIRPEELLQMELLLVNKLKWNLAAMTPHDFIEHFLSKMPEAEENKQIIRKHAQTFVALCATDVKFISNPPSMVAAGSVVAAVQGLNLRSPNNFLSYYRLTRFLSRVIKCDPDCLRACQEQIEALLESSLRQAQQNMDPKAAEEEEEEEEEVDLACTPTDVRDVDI

SMILES | IC50 (HL-60) [µM] | IC50 (Colo-205) [µM] | IC50 (MDA-MB-435) [µM] | IC50 (cdk4/cyclin D1) [nM] | concentration at 0.083 h (in vivo; intravenous, 3 mg/kg) [ng/mL] | concentration at 0.25 h (in vivo; intravenous, 3 mg/kg) [ng/mL] | concentration at 0.5 h (in vivo; intravenous, 3 mg/kg) [ng/mL] | concentration at 1 h (in vivo; intravenous, 3 mg/kg) [ng/mL] | concentration at 3 h (in vivo; intravenous, 3 mg/kg) [ng/mL] | concentration at 6 h (in vivo; intravenous, 3 mg/kg) [ng/mL] | AUC(0-inf) (in vivo; iv, 3 mg/kg) [ng·h/mL] | Cmax (in vivo; iv, 3 mg/kg) [ng/mL] | half-life (in vivo; iv, 3 mg/kg) [h] | IC50 (cdk2/cyclin E) [nM] | concentration at 0.083 h (in vivo; iv, 18 mg/kg) [ng/mL] | concentration at 0.25 h (in vivo; iv, 18 mg/kg) [ng/mL] | concentration at 0.5 h (in vivo; iv, 18 mg/kg) [ng/mL] | PC-3 Mean Vol. ± SD ([1]; dose 1 mg/kg ip) | PC-3 Mean Vol. ± SD ([1]; dose 3 mg/kg ip) | PC-3 Mean Vol. ± SD ([1]; dose 10 mg/kg ip) | also measured
Cl.Cl.N#Cc1ccc(S(=O)(=O)N2CCC(Nc3nc(N[C@H]4CC[C@H](N)CC4)nc4c3ncn4C3CCCC3)CC2)cc1 [compound 109, trans-N^2-(4-Amino-cyclohexyl)-9-cyclopentyl-N^6-[1-(4-cyano-benzenesulfonyl)-piperidin-4-yl]-9H-purine-2,6-diamine dihydrochloride] | 0.12 | 0.18 | 0.11 | 12 |  |  |  |  |  |  | 1110 | 1690 | 2 | 45 | 1690 ± 224 | 915 ± 15.2 | 514 ± 45.2 |  | 1807 ± 1388 | 979 ± 734 | concentration at 1 h (in vivo; iv, 18 mg/kg): 238 ± 38.7 ng/mL; concentration at 3 h (in vivo; iv, 18 mg/kg): 30.1 ± 8.5 ng/mL; concentration at 6 h (in vivo; iv, 18 mg/kg): 9.5 ± 1.8 ng/mL; concentration at 8 h (in vivo; iv, 18 mg/kg): 5.5 ± 0.9 ng/mL; Conc. (ng/ml) in plasma [2, 3]: BLQ; Cls [2, 4]: 45.1 mL/min/kg
COC(=O)c1ccccc1S(=O)(=O)N1CCC(Nc2nc(N[C@H]3CC[C@H](N)CC3)nc3c2ncn3C2CCCC2)CC1.Cl.Cl [compound 111, trans-2-{4-[2-(4-Amino-cyclohexylamino)-9-cyclopentyl-9H-purin-6-ylamino]-piperidine-1-sulfonyl}-benzoic acid methyl ester dihydrochloride] | 0.38 | 0.09 | 0.43 | 51 |  |  |  |  |  |  | 1460 | 2450 | 2 | 9 | 2450 ± 287 | 1090 ± 129 | 588 ± 29.3 |  | 1083 ± 704 | 2114 ± 1320 | concentration at 1 h (in vivo; iv, 18 mg/kg): 335 ± 81.3 ng/mL; concentration at 3 h (in vivo; iv, 18 mg/kg): 33.8 ± 6.8 ng/mL; concentration at 6 h (in vivo; iv, 18 mg/kg): 10.9 ± 3 ng/mL; concentration at 8 h (in vivo; iv, 18 mg/kg): 6 ± 2 ng/mL; Conc. (ng/ml) in plasma [2, 3]: BLQ; Cls [2, 4]: 34.2 mL/min/kg
Cl.Cl.N[C@H]1CC[C@H](Nc2nc(NC3CCN(S(=O)(=O)c4cccc(C(F)(F)F)c4)CC3)c3ncn(C4CCCC4)c3n2)CC1 [compound 112, trans-N^2-(4-Amino-cyclohexyl)-9-cyclopentyl-N^6-[1-(3-trifluoromethyl-benzenesulfonyl)-piperidin-4-yl]-9H-purine-2,6-diamine dihydrochloride] | 0.18 | < 0.02 | 0.87 | 224 | 2810 ± 272 | 1700 ± 312 | 435 ± 48 | 175 ± 42.4 | 45 ± 7.2 | 17.7 ± 1.7 | 1460 | 2810 | 2.8 | 48 |  |  |  | 1155 ± 872 |  |  | PC-3 Mean Vol. ± SD ([1]; dose 0.3 mg/kg ip): 1302 ± 869; concentration at 8 h (in vivo; intravenous, 3 mg/kg): 13.6 ± 3.7 ng/mL; Cls [2, 5]: 34.2 mL/min/kg; Conc. in plasma ([2]; Cassette #3, 24 h): BLQ
CCOC(=O)c1ccc(NC(=O)N2CCC(Nc3nc(N[C@H]4CC[C@H](N)CC4)nc4c3ncn4C3CCCC3)CC2)cc1.Cl.Cl [compound 154, trans-4-[(1-{4-[2-(4-Amino-cyclohexylamino)-9-cyclopentyl-9H-purin-6-ylamino]-piperidin-1-yl}-methanoyl)-amino]-benzoic acid ethyl ester dihydrochloride] | 0.06 | 0.01 | 0.21 | 285 |  |  |  |  |  |  | 1580 | 4850 | 0.8 | 30 | 4850 ± 794 | 1130 ± 243 | 377 ± 73.2 |  | 1385 ± 873 | 1707 ± 721 | concentration at 1 h (in vivo; iv, 18 mg/kg): 126 ± 12.3 ng/mL; concentration at 3 h (in vivo; iv, 18 mg/kg): 8.4 ± 3.1 ng/mL; concentration at 6 h (in vivo; iv, 18 mg/kg): 2.3 ± 1.6 ng/mL; Conc. (ng/ml) in plasma ([2]; Cassette #2, single 18 mg/kg intravenous cassette dose, 8 h, Mean ± SD): BLQ^a; Conc. (ng/ml) in plasma ([2]; Cassette #2, single 18 mg/kg intravenous cassette dose, 24 h): BLQ^a; Cls ([2]; 3 mg/kg/compound (18 mg/kg Total Dose), Cassette #2): 31.6 mL/min/kg

More lines, main results first:

IC50 (HL-60) [µM] | IC50 (Colo-205) [µM] | IC50 (MDA-MB-435) [µM] | IC50 (cdk4/cyclin D1) [nM] | concentration at 0.083 h (in vivo; intravenous, 3 mg/kg) [ng/mL] | concentration at 0.25 h (in vivo; intravenous, 3 mg/kg) [ng/mL] | concentration at 0.5 h (in vivo; intravenous, 3 mg/kg) [ng/mL] | concentration at 1 h (in vivo; intravenous, 3 mg/kg) [ng/mL] | concentration at 3 h (in vivo; intravenous, 3 mg/kg) [ng/mL] | concentration at 6 h (in vivo; intravenous, 3 mg/kg) [ng/mL] | AUC(0-inf) (in vivo; iv, 3 mg/kg) [ng·h/mL] | Cmax (in vivo; iv, 3 mg/kg) [ng/mL] | half-life (in vivo; iv, 3 mg/kg) [h] | IC50 (cdk2/cyclin E) [nM] | concentration at 0.083 h (in vivo; iv, 18 mg/kg) [ng/mL] | concentration at 0.25 h (in vivo; iv, 18 mg/kg) [ng/mL] | concentration at 0.5 h (in vivo; iv, 18 mg/kg) [ng/mL] | SMILES | PC-3 Mean Vol. ± SD ([1]; dose 1 mg/kg ip) | PC-3 Mean Vol. ± SD ([1]; dose 3 mg/kg ip) | PC-3 Mean Vol. ± SD ([1]; dose 10 mg/kg ip) | also measured
0.1 | 0.13 | 0.12 | 15 | 765 ± 64.3 | 397 ± 59.2 | 185 ± 13 | 63.3 ± 0.5 | 21.8 ± 6.1 | 4.3 ± 0.8 | 440 | 765 | 1.3 | 8 |  |  |  | Cl.Cl.N[C@H]1CC[C@H](Nc2nc(NC3CCN(S(=O)(=O)c4ccc(F)cc4)CC3)c3ncn(C4CCCC4)c3n2)CC1 [compound 106, trans-N^2-(4-Amino-cyclohexyl)-9-cyclopentyl-N^6-[1-(4-fluoro-benzenesulfonyl)-piperidin-4-yl]-9H-purine-2,6-diamine dihydrochloride] | 1860 ± 741 | 1482 ± 906 |  | Cls ([2]; 3 mg/kg/compound (15 mg/kg Total Dose), Cassette #4): 113.7 mL/min/kg; Conc. in plasma ([2]; Cassette #4, 8 h, Mean ± SD): BLQ^a; Conc. in plasma ([2]; Cassette #4, 24 h): BLQ
0.03 | 0.09 | 0.15 | 91 | 3110 ± 703 | 419 ± 69.8 | 133 ± 10.2 | 59.8 ± 17.3 | 15.5 ± 4.8 | 4.1 ± 2.1 | 1020 | 3110 | 1.6 | 51 |  |  |  | Cl.Cl.N[C@H]1CC[C@H](Nc2nc(NC3CCN(C(=O)Nc4ccc(C(F)(F)F)cc4)CC3)c3ncn(C4CCCC4)c3n2)CC1 [compound 149, trans-4-[2-(4-Amino-cyclohexylamino)-9-cyclopentyl-9H-purin-6-ylamino]-piperidine-1-carboxylic acid (4-trifluoromethyl-phenyl)-amide dihydrochloride] | 1084 ± 929 | 2089 ± 1382 |  | concentration at 8 h (in vivo; intravenous, 3 mg/kg): 5.4 ± 0.5 ng/mL; Cls [2, 5]: 49.1 mL/min/kg; Conc. in plasma ([2]; Cassette #3, 24 h): BLQ
